According to patent US8809368B2, “Compounds affecting gap junction activity” (Kansas State University Research Foundation, priority 2006, dated 2014):

Tests used:
T47D cells = test: Cell morphology, T47D cells; assay type: cell-based, human; conditions: varying concentrations, 24 hours
Protocol: Cell Morphology: T47D cells (1000 cells/ml) were seeded in a six-well plate for 24 hours. Next day, cells were dosed with varying concentrations of PQ1 for 24 hours. Cells were observed under a microscope before and after the experiment. No effect seen on the morphology of cells in the presence of PQ1.

active caspase 3 = test: Western blot of active caspase 3 in T47D cells; assay type: cell-based, human
Protocol: T47D cells were treated with 0, 200 nM, 500 nM and 1 μM PQ1 for 24 hours. Treatment with succinic acid was used as control. Western blot analysis was performed. Nitrocellulose membrane was blotted with the active form of caspase 3 antibodies (16 kDa). Actin acts as loading control. Graphical presentation of three experiments are presented with statistical significance, p<0.05.
Western Blot analysis: Cells were grown in RPMI media until they were 90% confluent in 75 cm2 flasks. Cells were dosed with 200, 500 nM of PQ1 for 24 hours. Cells were harvested with lysis buffer and centrifugated. Cell lysate was run on a 12% SDSpolyacrylamide gel electrophoresis (PAGE) and transferred to nitrocellulose membrane. Membrane was incubated with Caspase Antibody. Western blots were detected by enhanced chemiluminescence detection reagents.
The effect of PQ1 on apoptosis was further examined by detecting the active form of caspase 3. T47D cells were treated with […] PQ1 for 24 hours. Western blot analysis was performed using active form of caspase 3 antibodies. A 200 nM PQ1 causes 1.5-fold increase of active caspase 3 compared to control (FIG. 18). However, a decrease of caspase is observed in higher concentrations, a common effect in apoptotic protein expression. This is due to the cytotoxicity response of the cells.
Western Blot Analysis. Cells were grown in serum supplemented RPMI media until they were 90% confluent in 75 cm^2 flasks. Cells were kept in starving media containing phenol red-free DMEM with 5% charcoal dextran stripped serum, overnight. Cells were dosed with 0, 10, 100, 200 and 500 nM of PQ1 for 24 hours. Cells were washed three times with cold PBS and then were harvested using lysis buffer (20 mM Tris pH 7.5, 0.5 mM EDTA, 0.5 mM EGTA, 0.5% Triton X-100) with 1:1000 dilution of protease inhibitors (Sigma-Aldrich, Saint Louis, Mo.). Cell lysate was sonicated and centrifuged at 13,000 rpm for 30 minutes at 4° C. […] Western blots were detected by enhanced chemiluminescence detection reagents (Pierce, Rockford, Ill., USA).

MEC = test: Soft agar colony growth, MEC; assay type: cell-based, human; conditions: 100 nM
Protocol: Various oncogenes (e.g. ras, raf, neu, src, mos) down-regulate GJIC while several tumor suppressor genes can up-regulate GJIC. […] Cells were grown in soft agar to assess their capacity for anchorage-independent growth, which is a key feature of cell transformation due to the importance of cell-cell and cell-matrix based tumor suppression. MEC and T47D cells were treated with 10, 100, 1000, and 10000 nM PQ1 for 7 days. A graphical presentation of three experiment results is presented in log scale of PQ1 concentration. […] A 100 nM PQ1 inhibits 66% of colony growth compared to controls, without PQ1 treatment or 100 nM succinic acid.
Colony Growth Using Soft Agar. Cells were treated with 0, 10, 100, 200 and 500 nM PQ1 for 7 days. Base agar plates were prepared containing 0.8% agar and 0.4% agar in Ham's F12. Cells (5×10^4 cells/33 mm^2 well) were suspended in 100 μl of Ham's F12 with 0.4% agar and plated. These plates were maintained at 37° C. for 7 days and examined for the presence of colonies. Individual colonies of 50 μm or greater were examined.

caspase-3 = test: CoCl2 chemical hypoxia in R28 cells, caspase-3 activation by Western blot; assay type: cell-based, rat
Protocol: (§1) (A) About 70% confluent retinal R28 cells were treated with 100, 200 and 500 μM CoCl2 for 24 h with or without the pre-treatment of PQ1 (10 μM, 40 min) in a cell culture chamber (5% CO2, room air, 37° C.). Caspase-3 activation was determined by Western blotting in whole cell homogenates (WCH). (B) HIF1α stabilization was measured in the nuclear extracts (NE) after treatment with 500 μM CoCl2 at different time intervals with or without the pretreatment of PQ1. […] Levels of Cx43 and phosphoCx43-Ser368 are measured in WCH. β-Actin is used as a loading control.
Approximately 70% confluent retinal R28 cells were pre-incubated with PQ1 (10 μM, 40 min), followed by CoCl2 treatments at 100, 200 and 500 μM for different time periods in a cell culture chamber (5% CO2, room air, 37° C.). Hypoxia induction was confirmed by testing the hypoxia-inducible factor 1-α (HIF1α) protein expression levels in nuclear extracts by Western blotting.
Western blot. Western blotting was performed as described previously. […]
Next, it was determined whether PQ1 inhibition of gap junctions could prevent retinal neurosensory R28 cells from apoptosis using a chemical (CoCl2)-induced ischemia system as our model. […]

Cx43 = test: Western blot of Cx43 and phosphoCx43-Ser368 in R28 cells; assay type: cell-based, rat; conditions: PQ1, CoCl2 or a combination of both
Protocol: as §1
Western blot. Western blotting was performed as described previously. Anti-Cx43 was purchased from Fred Hutchinson cancer research center (# Cx43NT1), anti-HIF1a was purchased from Novus Biologicals (# NB100-105), and anti-caspase-3 (# 9661), phosphor-Cx43 (Ser368) (#3511S) were purchased from Cell Signaling Technology and anti-b-actin was purchased from Sigma (# A5441).
Next, it was determined whether PQ1 inhibition of gap junctions could prevent retinal neurosensory R28 cells from apoptosis using a chemical (CoCl2)-induced ischemia system as our model. […] CoCl2 at 500 μM caused stabilization of HIF1a in the nuclear extracts and this stabilization started as early as three hours after treatment (FIG. 20B). This confirmed induction of hypoxia. […]

COc1cc(NCCCN)c2nccc(C)c2c1Oc1cccc(C(F)(F)F)c1.O=C(O)CCC(=O)O [PQ1, 6-Methoxy-8-[(3-aminopropyl)amino]-4-methyl-5-(3-trifluoromethylphenyloxy) quinoline succinic acid]
cell morphology (T47D cells): No effect
increase of active caspase 3 (active caspase 3; 200 nM, 24 hours, compared to control): 1.5 fold
increase in the expression of active caspase 3 (active caspase 3; 200 and 500 nM): 50%
active caspase 3 (active caspase 3; higher concentrations, 24 hours): decrease
colony growth (MEC): no effect
CoCl2-induced activation of caspase-3 (caspase-3; PQ1 10 μM 40 min pre-incubation, then 500 μM CoCl2 24 h): blocked the activation of caspase-3 substantially
activation of caspase-3 (caspase-3; PQ1 alone): did not cause activation
Cx43 gap junction protein levels (Cx43): did not cause any change
phosphorylation of Cx43 at residue ser368 (Cx43): did not cause any change
